Measurements published in publication PMC3388044, “Probing of Exosites Leads to Novel Inhibitor Scaffolds of HCV NS3/4A Proteinase” (PLoS ONE, 2012).

Legend:
[1] = tested on: sub-genomic HCV RNA replicon; assay: HCV replicon inhibition assay, luciferase reporter in Huh7 ET cells; assay type: cell-based; details: 72 h; for IC50: concentration reducing viral replication by 50%; for IC90: concentration reducing viral replication by 90%
Protocol: To support our in vitro data, the inhibition of HCV RNA replication was then measured using human hepatocarcinoma Huh7 ET cells. These cells express a sub-genomic HCV RNA replicon with a stable luciferase reporter. The replicon contains the 5′-end Internal Ribosome Entry Site (IRES) of HCV which drives the production of a firefly luciferase, ubiquitin, and neomycin phosphotransferase (Neo) fusion protein. Ubiquitin cleavage releases the luciferase and Neo proteins. The IRES element encephalomyocarditis virus controls the translation of the HCV […] proteins NS3-NS5 in the replicon. The NS3 protein cleaves the synthesized HCV polyprotein to release the mature NS3, NS4A, NS4B, NS5A and NS5B proteins that are required for HCV replication. The authentic 3′-end non-translating region of HCV is localized at the 3′-end of the replicon. As a result, the activity of the luciferase reporter is directly proportional to HCV RNA levels and positive control antiviral compounds behave comparably using either luciferase or RNA endpoints.
Human interferon α2b was used as a control.

[2] = biological target: T1, NS3/4A A156T (Hepatitis C virus genotype 1b, UniProt O92972, A1182T); assay type: biochemical, HCV genotype 1b, strain HC-J4; details: for IC50: recombinant A156T mutant, FRET peptide substrate; for effect of A156T resistance mutation on efficacy: in contrast with boceprevir and telaprevir
T1 construct: The NS3/4A construct represented the individual NS3 proteinase domain N-terminally fused with an NS4A co-factor; 6xHis; purchased AnaSpec (Fremont, CA)
From the text: (§1) Reagents were purchased from Sigma unless indicated otherwise. The FRET substrate Ac-DE-D(Edans)-EE-Abu-ψ-[COO]-AS-K(Dabsyl)-NH2, purified recombinant wild-type NS3/4A from HCV genotype 1b, strain HC-J4, and the mutants with the V36M, R155K, A156T, D168A and V170A resistance mutations were from AnaSpec (Fremont, CA). The NS3/4A construct represented the individual NS3 proteinase domain N-terminally fused with an NS4A co-factor and tagged with a 6xHis tag. […] Pyroglutamic acid-Arg-Thr-Lys-Arg-7-amino-4-methylcoumarin was from Peptides International (Louisville, KY). West Nile virus NS2B-NS3 proteinase (strain NY99) was expressed, purified and refolded to restore its functional activity as described earlier. The pET15b-Den2-CF40-Gly-NS3pro 185 plasmid encoding the Dengue virus type 2 NS2B-NS3 protease was a kind gift of Dr. Subhash Vasudevan (Program in Emerging Infectious Diseases, DUKE-NUS Graduate Medical School, Singapore). DV NS2B-NS3 proteinase was expressed purified and refolded to restore its functional activity as described previously, [70]. The expression of the soluble C-terminally truncated human furin construct in Sf9 insect cells (an ovarian cell line from fall armyworm Spodoptera frugiperda; Invitrogen, Carlsbad, CA) infected with the recombinant baculovirus and purification of soluble furin from the medium were described earlier. Original human hepatocarcinoma Huh7 cells were obtained from ATCC (Manassas, VA).
(§2) The NS3/4A activity assay was performed at 37°C in triplicate in wells of a 96-well plate in 0.2 ml 50 mM HEPES, pH 7.5, containing 100 mM NaCl, 10 mM DTT, 20% glycerol, the Ac-DE-D(Edans)-EE-Abu-ψ-[COO]-AS-K(Dabsyl)-NH2 substrate (10 µM) and the NS3/4A enzyme (10 nM). Reaction velocity was monitored continuously at λex = 355 nm and λem = 500 nm for 10 min using a Spectramax Gemini EM fluorescence spectrophotometer (Molecular Devices, Sunnyvale, CA) and the initial rate of reaction v was recorded for each reaction. […] Compound stock solutions (10 mM) were made in 100% DMSO. Stocks were then diluted using the assay buffer. As a result, the final DMSO concentration was always below 1% in the assay reactions.
(§3) To measure the inhibitory potency of the compounds, their increasing concentrations were pre-incubated with the individual proteinases in the corresponding buffer for 30 min at ambient temperature. At least, 7–9 different concentrations were used for each inhibitor. The residual activity of the enzymes was then measured as above. The IC50 values of the inhibitory compounds were calculated by determining the concentrations of the compounds needed to inhibit 50% of the enzyme activity against the peptide substrate. GraphPad Prism was used as fitting software.

[3] = tested on: NS3/4A A156T; assay type: biochemical, HCV genotype 1b, strain HC-J4; details: fold change in IC50 for the mutant compared to WT
From the text: as §1, §2, §3

[4] = biological target: T2, NS3/4A D168A (Hepatitis C virus genotype 1b, UniProt O92972, D1194A); assay type: biochemical, HCV genotype 1b, strain HC-J4; details: recombinant D168A mutant, FRET peptide substrate
T2 construct: The NS3/4A construct represented the individual NS3 proteinase domain N-terminally fused with an NS4A co-factor; 6xHis; purchased AnaSpec (Fremont, CA)
From the text: as §1, §2, §3

[5] = tested on: NS3/4A R155K; assay type: biochemical, HCV genotype 1b, strain HC-J4; details: fold change in IC50 for the mutant compared to WT
From the text: as §1, §2, §3

[6] = biological target: T3, NS3/4A V36M (Hepatitis C virus genotype 1b, UniProt O92972, V1062M); assay type: biochemical, HCV genotype 1b, strain HC-J4; details: recombinant V36M mutant, FRET peptide substrate
T3 construct: The NS3/4A construct represented the individual NS3 proteinase domain N-terminally fused with an NS4A co-factor; 6xHis; purchased AnaSpec (Fremont, CA)
From the text: as §1, §2, §3

[7] = tested on: NS3/4A V36M; assay type: biochemical, HCV genotype 1b, strain HC-J4; details: fold change in IC50 for the mutant compared to WT
From the text: as §1, §2, §3

| Compound | IC50 [1] [µM] | IC90 [1] [µM] | IC50 [2] [µM] | NS3/4A A156T FC [3] | IC50 [4] [µM] | NS3/4A R155K FC [5] | IC50 [6] [nM] | NS3/4A V36M FC [7] | effect of A156T resistance mutation on efficacy [2] |
| --- | --- | --- | --- | --- | --- | --- | --- | --- | --- |
| O=C(Nc1ccccc1)c1cc(S(=O)(=O)Nc2nc3ncccc3[nH]2)c(SSc2cc(Cl)c(C(=O)Nc3ccccc3)cc2S(=O)(=O)Nc2nc3ncccc3[nH]2)cc1Cl [Compound 1] | > 100 | > 100 | 0.72 | 3.93 | 0.25 | 9.6 | 260 | 1.4 |  |
| Clc1ccc(OCc2nn3c(CCc4nnc5sc(COc6ccc(Cl)cc6)nn45)nnc3s2)cc1 [Compound 2] | 10 | 25.2 | 17.3 | 57.57 | 4.45 | 19.5 | 1530 | 5.1 |  |
| Cc1n[nH]c(=S)n1Nc1nc(SCc2ccccc2)nc2n[nH]c(Cc3nn[nH]n3)c12 [Compound 3] | > 100 | > 100 | 16.2 | 45.14 | 8.4 | 15.4 | 1670 | 4.6 |  |
| Oc1ccccc1-c1nnc2sc3c(Cl)c4nn5c(-c6ccccc6O)nnc5sc4c(Cl)c3nn12 [Compound 4] | 28 | 99.4 | 6.54 | 18.17 | 3.35 | 10.4 | 340 | 0.9 |  |
| Clc1ccc(Nc2nc(SCc3ccccc3)nc3n[nH]c(Cc4nc5ccccc5s4)c23)cc1 [Compound 5] | > 100 | > 100 | 18.6 | 48.95 | 12.7 | 25.4 | 1070 | 2.8 |  |
| S=c1[nH]nc(Nc2nc(SCc3ccccc3)nc3n[nH]c(Cc4nn[nH]n4)c23)s1 [Compound 6] | > 100 | > 100 | 3.08 | 3.24 | 1.21 | 2.4 | 990 | 1.04 | not affected |
| S=c1[nH]n2c(COc3cc(Cl)c(OCc4nnc5sc(=S)[nH]n45)cc3Cl)nnc2s1 [Compound 7] | 9.95 | 54.4 | 1.12 | 0.9 | 1.28 | 1.6 | 1400 | 1.1 | not affected |
| COc1cc(C2C(C(=O)Nc3ccc(Cl)c(Cl)c3)=C(C)NC(C)=C2C(=O)Nc2ccc(Cl)c(Cl)c2)ccc1O [Compound 8] | 13.6 | 19.2 | 17.7 | 9.2 | 3.02 | 5.7 | 1840 | 0.96 |  |
